Converted amounts (≈) assume the structure as drawn. “And” between values parts separate entries of the source, which are not always exact repeats. Equal values may be shown once. Read-outs that look alike come from different tables or passages of the source. Blank lines part the entries; values can stand above or below the compound they belong to.
Key:
[1] = Preliminary thermal stability, heating at 100 °C for 5 min; assay type: physicochemical; settings: monitored by 1H NMR and LC-MS
Text: In addition, we checked the preliminary thermal stability of two representative 3‐oxabicyclo[3.1.1]heptanes: carboxylic acid 11b and N‐Boc amino acid 40.

[2] = Experimental pKa of carboxylic acids; assay type: physicochemical; settings: for pKa: read-out: pKa (exp.)
Text: We also studied the influence of the replacement of the methylene group for the oxygen atom in the bicyclo[3.1.1]heptane skeleton on the electronic properties. For that, we experimentally measured pK a values of the bicyclo[3.1.1]heptane carboxylic acid 49, the 3‐oxabicyclo[3.1.1]heptane carboxylic acid 18b, and meta‐methyl benzoic acid (48) as a reference (Figure 5).^[ [34] ^]

[3] = set-up: method as in earlier work; settings: cited from earlier work
[4] = Kinetic solubility in phosphate-buffered saline, pH 7.4; assay type: physicochemical; settings: for solubility at 2 h: PBS solubility
Method: page 239: 7. […] The data […] analysis software. […] page 240: Methods Kinetic solubility assay was performed according to Enamine's aqueous solubility SOP. Briefly, […] theoretical concentration of 400 μM in duplicates in phosphate-buffered saline pH 7.4 […] The experimental compound dilutions in PBS were further allowed to equilibrate at 25 °C on a thermostatic shaker for two hours and then filtered through HTS filter plates using a vacuum manifold. The filtrates of test […] prepared to theoretical concentrations of 0 μM (blank), 10 μM, 25 μM, 50 μM, 100 μM, and 200 […] Ondansetron was used as a reference compound to control proper assay performance. 200 μL of each sample was transferred to a 96-well plate and measured in the 230-550 nm range with a 5 nm step. The concentrations of compounds in PBS filtrate are calculated using a dedicated Microsoft Excel calculation script. Proper absorbance wavelengths for calculations are selected for each compound manually based on absorbance maximums (absolute absorbance unit values for the minimum and maximum concentration points within the 0 - 3 OD range). Each final dataset is visually evaluated by the operator, and goodness of fit (R2) is calculated for each calibration curve. […] close to the upper limit of the range may have higher actual solubility (e.g. 5'-deoxy-5- fluorouridine). The calibration curves are shown in Appendix*. […] Compound ID PBS solubility, pH 7.4, μM SE […] Ondansetron 128 126 127** 1.1 EN300-7362818 6 6 6 0.2 (Sonidegib) BCHep-Sonidegib (50) 5 3 4 0.9 Table S3. 2nd batch PBS solubility, pH 7.4, μM Compound ID SE […] Ondansetron 124 124 124** 0.1 EN300-45381956 (51) 34 34 34 0.2 *Goodness of fit (R2) in all titration curves as well as the variations between repeat measurements indicates a high quality of the experimental data in the current batch of test articles. **Ondansetron solubility data are consistent with those previously obtained. […]

[5] = Metabolic stability in human liver microsomes; assay type: in vitro ADME; settings: for remaining at […], 2 µM: 15 min
Method: 9. Metabolic Stability in Human Liver Microsomes
The objective of this study was to determine the metabolic stability of 3 test articles (EN300- […]
in human liver microsomes at five-time points over 40 minutes using HPLC-MS. Metabolic stability is defined as the percentage of parent compound lost over time in the presence of a metabolically active test system.
Potassium phosphate monobasic (Bio-Basic, Canada; Lot #N9016010)
Potassium phosphate dibasic (Bio-Basic, Canada; Lot #MA7100050) […]
Glucose-6-phosphate dehydrogenase from baker's yeast, type XV (Sigma-Aldrich, USA; Cat […]
D-Glucose-6-phosphate sodium salt (Sigma-Aldrich, USA; Cat #G7879-1G)
NADPH tetrasodium salt (BLD Pharmatech Ltd., Cat #BD116582)
Verapamil hydrochloride (Sigma Aldrich, USA; Cat #V4629)
Niclosamide (Sigma-Aldrich, USA; Cat #N3510)
DMSO stock solutions of the tested compounds 20 mM
Gradient HPLC system (Shimadzu)
Triple quadrupole mass-detector API 3000 with TurboIonSpray Ion Source (AB Sciex, Canada) […]
Multichannel pipettors 1-30 µL, 2-125 µL, 30-850 µL (Thermo Scientific) […]
All measurements were performed using the Shimadzu HPLC system including vacuum degasser, gradient pumps, reverse phase HPLC column, column oven, and autosampler. Mass spectrometric analysis was performed using an API 3000 mass spectrometer from Applied Biosystems/MDS Sciex (AB Sciex) with Turbo V ion source and TurboIonspray interface. The […]
and system control were performed using Analyst 1.6.3 software from AB Sciex.
Microsomal incubations were carried out in 96-well plates in 5 aliquots of 30 μL each (one for each time point). Liver microsomal incubation medium comprised of phosphate buffer (100 mM, pH 7.4), MgCl2 (3.3 mM), NADPН (3 mM), glucose-6-phosphate (5.3 mM), glucose-6-phosphate dehydrogenase (0.67 units/mL) with 0.42 mg of liver microsomal protein per mL. In the control reactions, the NADPH-cofactor system was substituted with phosphate buffer. Test compounds […]
100 rpm. Five-time points over 40 minutes were analyzed. The reactions were stopped by adding 5 volumes of acetonitrile with internal standard to incubation aliquots, followed by protein sedimentation by centrifuging at 5500 rpm for 5 min. Each reaction was performed in duplicates.
Supernatants were analyzed using the HPLC system coupled with a tandem mass spectrometer.
The elimination constant (kel), half-life (t1/2), and intrinsic clearance (Clint) were determined in a plot of […] versus time, using linear regression analysis:1
1 In order to indicate the quality of the linear regression analysis, the R2 (determination coefficient) values are provided.
In some cases, the last time point is excluded from the calculations to ensure acceptable logarithmic linearity of decay.

[6] = physchem
[7] = tested on: Hedgehog signaling pathway; settings: Mus musculus, NIH3T3, read-out: IC50 (HH signal): inhibition of the Hedgehog signaling pathway, Gli reporter NIH3T3 cell line
[8] = in vitro; settings: human, 90 min, no verapamil; for Papp A→B: Caco-2, pH 7.4, Papp (AB); for Papp B→A: Caco-2, pH 7.4, Papp (BA)
[9] = 25 °C, pH 7.4, aqueous buffer, kinetic from dmso stock, pH 7.4, Incubation 1
[10] = 25 °C, pH 7.4, aqueous buffer, kinetic from dmso stock, pH 7.4, Incubation 2
[11] = 25 °C, pH 7.4, aqueous buffer, kinetic from dmso stock, pH 7.4, Mean
[12] = both sexes, human, liver microsomes, pH 7.4, Table S6, 1st batch, 2 µM
[13] = Table S4, 1st batch, incubation 1
[14] = Table S4, 1st batch, incubation 2
[15] = Table S4, 1st batch, incubation 3

thermal stability [1]: remained stable
Compound: O=C(O)C12COCC(c3ccc(Br)cc3)(C1)C2 [Compound 11b]

pKa (exp.) [2]: 4.2 | pKa [2]: 4.23
Compound: CC12COCC(C(=O)O)(C1)C2 [Compound 18b]

thermal stability [1]: remained stable
Compound: CC(C)(C)OC(=O)NC12COCC(C(=O)O)(C1)C2 [Compound 40]

Compound: Cc1cccc(C(=O)O)c1 [Compound 48, meta‐methyl benzoic acid]
pKa (exp.) [3]: 4.27 and 4.3

pKa (exp.) [2]: 5.0 | pKa [2]: 5.03
Compound: CC12CCCC(C(=O)O)(C1)C2 [Compound 49]

solubility kinetic at 2 h ([4]; 25 °C, pH 7.4, aqueous buffer, kinetic from dmso stock): 4 µM (≈ 1.96 µg/mL) | solubility at 2 h [4, 9]: 5 µM (≈ 2.45 µg/mL) | solubility at 2 h [4, 10]: 3 µM (≈ 1.47 µg/mL) | solubility at 2 h [4, 11]: 4 µM (≈ 1.96 µg/mL) | half-life at 2 μM ([5]; both sexes, human, human liver microsomes, pH 7.4, human liver microsomes, read-out: t1/2: experimental half-time of a metabolic decomposition): 2 h | microsomal CLint at 2 μM ([5]; both sexes, human, human liver microsomes, pH 7.4, read-out: CLint: experimental metabolic stability in human liver microsomes): 14 µL/min/mg | remaining at 7 min, 2 µM [5, 12]: 92% | remaining at […], 2 µM [5, 12]: 98% | remaining at 25 min, 2 µM ([5]; both sexes, human, liver microsomes, pH 7.4, Table S6, 1st batch, 25 min, 2 µM): 88% | remaining at 40 min, 2 µM ([5]; both sexes, human, liver microsomes, pH 7.4, Table S6, 1st batch, 40 min, 2 µM, read-out: % Remaining, Mean of 2): 78% | remaining at 40 min, 2 µM ([5]; both sexes, human, liver microsomes, pH 7.4, Table S6, 1st batch, 40 min, no NADPH, read-out: % Remaining without cofactor, Mean of 2): 93% | k el at 2 µM ([5]; both sexes, human, liver microsomes, pH 7.4, Table S6, 1st batch): ~0.0001 s⁻¹ | microsomal CLint at 2 μM ([5]; both sexes, human, liver microsomes, pH 7.4, Table S6, 1st batch, read-out: Clint): ~14 µL/min/mg | half-life at 2 μM ([5]; both sexes, human, liver microsomes, pH 7.4, Table S6, 1st batch, read-out: t1/2): ~2 h | D [13]: 8.66E+04 | D [14]: 8.31E+04 | D [15]: 8.70E+04 | logD at 1 h ([6]; pH 7.4, LogD, pH 7.4): ≥ 4.5 | logD at 1 h ([6]; pH 7.4, LogD, pH 7.4 (overall of 3 incubations)): ≥ 4.5 | logD at 1 h ([6]; pH 7.4, logD (7.4): experimental distribution coefficient in n-octanol/phosphate-buffered saline, pH 7.4): ≥ 4 | IC50 [7]: 0.616 µM
Compound: CC1CN(c2ccc(NC(=O)C34CCCC(c5ccc(OC(F)(F)F)cc5)(C3)C4)cn2)CC(C)O1 (centres unmarked) [Compound 50]

% Remaining, Mean of 2 ([5]; Table S6, 1st batch, 25 min, 2 µM): 4% | % Remaining without cofactor, Mean of 2 ([5]; Table S6, 1st batch, 40 min, no NADPH): 95% | % Remaining, Mean of 2 ([5]; Table S7, 2nd batch, 25 min, 2 µM): 11% | % Remaining, Mean of 2 ([5]; Table S7, 2nd batch, 40 min, 2 µM): 2% | remaining at 7 min, 2 µM [5, 12]: 46% | remaining at […], 2 µM [5, 12]: 15% | remaining at […], 2 µM ([5]; both sexes, human, liver microsomes, pH 7.4, Table S7, 2nd batch, 2 µM): 26% | microsomal CLint at 2 μM ([5]; both sexes, human, liver microsomes, pH 7.4, Table S7, 2nd batch, read-out: Clint): 223 µL/min/mg
Compound: O=C(O)Cc1ccccc1Nc1c(Cl)cccc1Cl [Diclofenac]

Papp A→B ([8]; Mean, 10 µM): 218 nm/s | Papp A→B ([8]; replicate 1, 10 µM): 198 nm/s | Papp A→B ([8]; replicate 2, 10 µM): 238 nm/s | Papp B→A ([8]; Mean, 10 µM): 187 nm/s | Papp B→A ([8]; replicate 1, 10 µM): 195 nm/s | Papp B→A ([8]; replicate 2, 10 µM): 179 nm/s
Compound: CC(C(=O)O)c1cccc(C(=O)c2ccccc2)c1 (centres unmarked) [Ketoprofen]

D [13]: 8.21E+02 | D [14]: 8.87E+02 | D [15]: 8.17E+02 | D (Table S5, 2nd batch, incubation 1): 9.52E+02 | D (Table S5, 2nd batch, incubation 2): 1.14E+03 | D (Table S5, 2nd batch, incubation 3): 8.63E+02 | logD at 1 h ([6]; pH 7.4, LogD, pH 7.4): 3.06
Compound: COC(=O)Nc1nc2ccc(C(=O)c3ccccc3)cc2[nH]1 [Mebendazole]

solubility at 2 h [4, 9]: 124 µM (≈ 36.4 µg/mL) | solubility at 2 h [4, 10]: 124 µM (≈ 36.4 µg/mL) | solubility at 2 h [4, 11]: 124 µM (≈ 36.4 µg/mL) | PBS solubility, pH 7.4, Mean ([4]; Table S2, 1st batch): 127 µM
Compound: Cc1nccn1CC1CCc2c(c3ccccc3n2C)C1=O (centres unmarked) [Ondansetron]
